Active and inactive are the calls of the source. No cut-off for these calls is given here.
Legend:
Format in all cases: functional, cell-based
HeLa = test: Antiproliferative activity against human HeLa cells after 72 hrs by MTT assay
U-251 = test: Antiproliferative activity against human U251MG cells after 72 hrs by MTT assay; settings: U-251, 72 h
Calu-1 = test: Antiproliferative activity against human Calu1 cells after 72 hrs by MTT assay; settings: Calu-1, 72 h
MCF7 = test: Antiproliferative activity against human MCF7 cells after 72 hrs by MTT assay; settings: MCF7, 72 h
PC-3 [1] = test: Antiproliferative activity against human PC3 cells after 72 hrs by MTT assay; settings: PC-3, 72 h
PC-3 [2] = test: Antiproliferative activity against human PC3 cells assessed as reduction in BrdU incorporation at 1 uM after 24 hrs by Hoechst staining based microscopic assay

| Structure (SMILES) | IC50 (HeLa) [µM] | IC50 (U-251) [µM] | IC50 (Calu-1) [µM] | IC50 (MCF7) [µM] | IC50 (PC-3 [1]) [µM] | Activity (PC-3 [2]) |
| --- | --- | --- | --- | --- | --- | --- |
| C[C@]12CC[C@H]3[C@@H](CC[C@H]4C[C@@H](O)CC[C@@]43CO)[C@@]1(O)CC[C@@H]2C1=CC(=O)OC1 [COROGLAUCIGENIN] | 4.2 | 5 | 5.8 | 7 | 0.4 | – |
| C[C@]12[C@H](O)C[C@H]3[C@@H](CC[C@H]4C[C@H]5O[C@@H]6O[C@H](CO)C[C@@H](O)[C@]6(O)O[C@@H]5C[C@@]43CO)[C@@]1(O)CC[C@@H]2C1=CC(=O)OC1 [GHALAKINOSIDE] | 0.9 | 5.2 | 0.7 | 0.6 | 4.2 | – |
| C[C@]12CC[C@H](O[C@@H]3O[C@H](CO)[C@@H](O)[C@H](O)[C@H]3O)C[C@@H]1CC[C@@H]1[C@@H]2CC[C@]2(C)[C@@H](C3=CC(=O)OC3)CC[C@]12O [DESGLUCOUZARIN] | 0.6 | 8 | 6.5 | 6 | 0.3 | – |
| C[C@]12[C@H](O)C[C@H]3[C@@H](CC[C@H]4C[C@@H](O)CC[C@@]43CO)[C@@]1(O)CC[C@@H]2C1=CC(=O)OC1 | 0.9 | 5 | 1.3 | 2.5 | 8.4 | – |
| C[C@@H]1C[C@H](O)[C@]2(O)O[C@@H]3C[C@@]4(C=O)[C@@H](CC[C@@H]5[C@@H]4C[C@@H](O)[C@]4(C)[C@@H](C6=CC(=O)OC6)CC[C@]54O)C[C@H]3O[C@@H]2O1 | 0.6 | 1 | 0.6 | 0.2 | 2.1 | – |
| C[C@]12[C@H](O)C[C@H]3[C@@H](CC[C@H]4C[C@H]5O[C@@H]6O[C@H](CO)C[C@H](O)[C@]6(O)O[C@@H]5C[C@@]43C=O)[C@@]1(O)CC[C@@H]2C1=CC(=O)OC1 | 2 | 6 | 2 | 2.8 | 0.9 | Active |
| CC(=O)O[C@@H]1C[C@]2(O)[C@@H]3CC[C@H]4C[C@H]5O[C@@H]6O[C@H](C)C[C@H](O)[C@]6(O)O[C@@H]5C[C@]4(C=O)[C@H]3C[C@@H](O)[C@]2(C)[C@H]1C1=CC(=O)OC1 | 0.5 | 6.5 | 0.7 | 0.4 | 4.2 | – |
| C[C@]12CC[C@H]3[C@@H](CC[C@H]4C[C@@H](O[C@@H]5O[C@H](CO)[C@@H](O)[C@H](O)[C@H]5O)CC[C@@]43CO)[C@@]1(O)CC[C@@H]2C1=CC(=O)OC1 | 0.3 | 6 | 6 | 8 | 1 | – |
| C[C@@H]1C[C@@H](O[C@@H]2O[C@H](CO)[C@@H](O)[C@H](O)[C@H]2O)[C@]2(O)O[C@@H]3C[C@@]4(C=O)[C@@H](CC[C@@H]5[C@@H]4CC[C@]4(C)[C@@H](C6=CC(=O)OC6)CC[C@]54O)C[C@H]3O[C@@H]2O1 | 0.6 | 4.4 | 0.3 | 0.2 | 1 | – |
| C[C@]12CC[C@H]3[C@@H](CC[C@H]4C[C@H]5O[C@@H]6O[C@H](CO)C[C@@H](O)[C@]6(O)O[C@@H]5C[C@@]43CO)[C@@]1(O)CC[C@@H]2C1=CC(=O)OC1 | 0.3 | 1.2 | 0.6 | 0.2 | 3 | – |
| CC(=O)O[C@@]12CO[C@@H]1C[C@H](O)[C@@]1(C)C(=O)[C@H](O)C3=C(C)[C@@H](OC(=O)[C@H](O)[C@@H](NC(=O)OC(C)(C)C)c4ccccc4)C[C@@](O)([C@@H](OC(=O)c4ccccc4)[C@H]21)C3(C)C [DOCETAXEL ANHYDROUS] | 0.0003 | 0.0007 | 0.0004 | 0.0005 | 0.0006 | – |
| C[C@@H]1C[C@@H](O)[C@]2(O)O[C@@H]3C[C@@]4(C=O)[C@@H](CC[C@@H]5[C@@H]4CC[C@]4(C)[C@@H](C6=CC(=O)OC6)CC[C@]54O)C[C@H]3O[C@@H]2O1 [CALACTIN] | 0.2 | 0.9 | 0.5 | 0.2 | 3.7 | – |
| C[C@@H]1C[C@H](O)[C@]2(O)O[C@@H]3C[C@@]4(C=O)[C@@H](CC[C@@H]5[C@@H]4C[C@@H](O)[C@]4(C)[C@@H](C6=CC(=O)OC6)[C@H](O)C[C@]54O)C[C@H]3O[C@@H]2O1 | 2.3 | 1.5 | 4.3 | 7 | 0.6 | Active |
| C[C@@H]1C[C@@H](O)[C@]2(O)O[C@@H]3C[C@@]4(CO)[C@@H](CC[C@@H]5[C@@H]4C[C@@H](O)[C@]4(C)[C@@H](C6=CC(=O)OC6)CC[C@]54O)C[C@H]3O[C@@H]2O1 | 7 | 8 | 6 | 5 | 0.6 | – |
| C[C@@H]1C[C@@H](O)[C@]2(O)O[C@@H]3C[C@@]4(C=O)[C@@H](CC[C@@H]5[C@@H]4C[C@@H](O)[C@]4(C)[C@@H](C6=CC(=O)OC6)CC[C@]54O)C[C@H]3O[C@@H]2O1 | 2.5 | 5.3 | 7 | 6 | 0.3 | Active |
| C[C@]12[C@H](O)C[C@H]3[C@@H](CC[C@H]4C[C@H]5O[C@@H]6O[C@H](CO)C[C@@H](O)[C@]6(O)O[C@@H]5C[C@@]43C=O)[C@@]1(O)CC[C@@H]2C1=CC(=O)OC1 | 0.3 | 5.5 | 3.7 | 2 | 8.9 | – |
| COc1cc(/C=C/C(=O)OC[C@H]2O[C@@H](O[C@H]3CC[C@@]4(C)[C@@H](CC[C@@H]5[C@@H]4CC[C@]4(C)[C@@H](C6=CC(=O)OC6)CC[C@]54O)C3)[C@H](O)[C@@H](O)[C@@H]2O)ccc1O | 4.5 | 5.8 | 6 | 0.2 | 0.3 | – |
| C[C@]12CC[C@H](O)C[C@@H]1CC[C@@H]1[C@@H]2CC[C@]2(C)[C@@H](C3=CC(=O)OC3)CC[C@]12O | 3 | 6 | 8 | 6 | 0.3 | – |
| C[C@]12CC[C@H]3[C@@H](CC[C@H]4C[C@H]5O[C@@H]6O[C@H](CO)C[C@H](O)[C@]6(O)O[C@@H]5C[C@@]43C=O)[C@@]1(O)CC[C@@H]2C1=CC(=O)OC1 | 0.3 | 5 | 1.4 | 1.8 | 3.2 | – |
